The conditions of data set [1]: rat brain; cited from earlier work.
Data set [2] has as its target mGluR2 (Rattus norvegicus, UniProt P31421). In words: Pretreatment. The data set is classed as in vivo, Sprague–Dawley rats.
For data set [3], the target named is T1, mGluR2 (Homo sapiens, UniProt Q14416). Particulars: mGluR2 NAM; cited from earlier work.
For data set [4] the following is noted: rat; cited from earlier work.
The nature of the next data set: Rat plasma stability. The data set is classed as in vitro ADME. Particulars: 37 °C, peak area at 60 min vs 0 min.
A short description of data set [5]: Rat liver microsome stability. The format is in vitro ADME, Sprague–Dawley rat. As to conditions: NADPH, 37 °C, peak area at 60 min vs 0 min. Background: Liver microsomes are vesicles of endoplasmic reticulum, rich in cytochrome P450 enzymes.
The target of a further data set is recombinant human Pgp (Homo sapiens, UniProt P08183). In words: Pgp-Glo assay. The format is in vitro ADME. Particulars: 100 μM compound; change relative to Na3VO4 samples = Pgp ATPase activity.
Chain of recombinant human Pgp (P08183 whole entry): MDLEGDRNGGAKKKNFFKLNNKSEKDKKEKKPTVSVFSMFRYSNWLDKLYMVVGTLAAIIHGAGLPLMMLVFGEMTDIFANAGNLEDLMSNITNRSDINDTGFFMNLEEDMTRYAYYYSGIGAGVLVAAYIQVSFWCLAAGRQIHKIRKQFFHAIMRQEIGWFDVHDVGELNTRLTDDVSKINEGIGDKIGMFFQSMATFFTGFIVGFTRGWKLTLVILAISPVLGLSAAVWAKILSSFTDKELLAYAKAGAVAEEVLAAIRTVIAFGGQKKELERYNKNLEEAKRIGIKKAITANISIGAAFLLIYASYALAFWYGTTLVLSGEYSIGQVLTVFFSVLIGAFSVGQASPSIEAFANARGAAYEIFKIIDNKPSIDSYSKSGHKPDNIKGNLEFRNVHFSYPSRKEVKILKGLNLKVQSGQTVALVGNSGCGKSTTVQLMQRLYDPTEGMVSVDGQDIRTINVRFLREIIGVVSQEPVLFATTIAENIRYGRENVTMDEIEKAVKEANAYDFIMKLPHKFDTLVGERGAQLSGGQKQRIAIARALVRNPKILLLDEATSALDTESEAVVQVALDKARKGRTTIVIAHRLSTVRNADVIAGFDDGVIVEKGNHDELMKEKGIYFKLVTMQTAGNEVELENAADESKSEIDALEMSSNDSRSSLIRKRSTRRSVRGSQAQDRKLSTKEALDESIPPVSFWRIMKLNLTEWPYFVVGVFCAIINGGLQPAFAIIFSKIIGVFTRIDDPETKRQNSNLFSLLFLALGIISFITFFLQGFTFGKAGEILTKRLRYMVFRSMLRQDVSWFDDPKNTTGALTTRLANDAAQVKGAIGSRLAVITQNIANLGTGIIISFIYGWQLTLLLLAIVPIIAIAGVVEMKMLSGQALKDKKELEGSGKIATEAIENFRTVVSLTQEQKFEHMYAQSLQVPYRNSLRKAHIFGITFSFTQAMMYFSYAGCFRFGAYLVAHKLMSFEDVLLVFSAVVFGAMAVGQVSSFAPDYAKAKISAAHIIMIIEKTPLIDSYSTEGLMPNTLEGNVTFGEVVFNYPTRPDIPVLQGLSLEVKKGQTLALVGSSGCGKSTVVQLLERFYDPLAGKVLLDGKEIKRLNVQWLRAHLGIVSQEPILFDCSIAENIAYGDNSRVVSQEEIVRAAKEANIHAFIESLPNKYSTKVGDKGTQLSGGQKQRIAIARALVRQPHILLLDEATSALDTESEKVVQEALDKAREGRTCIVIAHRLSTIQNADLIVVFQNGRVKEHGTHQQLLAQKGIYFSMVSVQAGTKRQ
For data set [6], the target named is T1, mGluR2.
[7] abbreviates: 0.5 mg/kg iv., 1 min before tracer.
Where [8] appears, read: 0.2 mg/kg iv., 1 min before tracer.
Setting [9] is: 0.2 mg/kg iv., 20 min before tracer.

We go through 5 molecules from paper PMC9434702 (Journal of medicinal chemistry, 2022).

T1 sequence (Q14416 19-872): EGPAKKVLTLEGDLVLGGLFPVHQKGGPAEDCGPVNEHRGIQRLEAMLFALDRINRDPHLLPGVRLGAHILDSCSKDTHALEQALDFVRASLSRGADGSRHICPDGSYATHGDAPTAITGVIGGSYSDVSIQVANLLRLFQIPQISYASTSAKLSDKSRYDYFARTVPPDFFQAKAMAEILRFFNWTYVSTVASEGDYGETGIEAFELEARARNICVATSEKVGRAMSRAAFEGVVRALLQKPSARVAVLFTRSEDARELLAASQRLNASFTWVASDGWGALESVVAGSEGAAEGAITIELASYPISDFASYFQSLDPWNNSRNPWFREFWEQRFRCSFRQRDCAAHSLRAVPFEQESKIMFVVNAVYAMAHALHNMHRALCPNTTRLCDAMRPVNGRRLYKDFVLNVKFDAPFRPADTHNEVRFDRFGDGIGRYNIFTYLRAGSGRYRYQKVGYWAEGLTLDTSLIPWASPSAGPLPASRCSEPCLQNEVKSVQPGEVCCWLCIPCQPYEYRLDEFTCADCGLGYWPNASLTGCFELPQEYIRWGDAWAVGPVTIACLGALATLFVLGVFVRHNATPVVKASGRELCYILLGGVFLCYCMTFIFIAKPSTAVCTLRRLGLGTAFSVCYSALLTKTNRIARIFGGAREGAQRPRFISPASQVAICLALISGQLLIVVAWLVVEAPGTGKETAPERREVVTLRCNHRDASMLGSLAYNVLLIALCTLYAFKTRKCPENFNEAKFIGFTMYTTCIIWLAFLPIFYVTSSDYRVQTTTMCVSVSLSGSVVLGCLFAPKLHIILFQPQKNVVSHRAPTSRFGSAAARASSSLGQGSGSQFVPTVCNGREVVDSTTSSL
Chain of mGluR2 (Rattus norvegicus, UniProt P31421) (P31421 19-872): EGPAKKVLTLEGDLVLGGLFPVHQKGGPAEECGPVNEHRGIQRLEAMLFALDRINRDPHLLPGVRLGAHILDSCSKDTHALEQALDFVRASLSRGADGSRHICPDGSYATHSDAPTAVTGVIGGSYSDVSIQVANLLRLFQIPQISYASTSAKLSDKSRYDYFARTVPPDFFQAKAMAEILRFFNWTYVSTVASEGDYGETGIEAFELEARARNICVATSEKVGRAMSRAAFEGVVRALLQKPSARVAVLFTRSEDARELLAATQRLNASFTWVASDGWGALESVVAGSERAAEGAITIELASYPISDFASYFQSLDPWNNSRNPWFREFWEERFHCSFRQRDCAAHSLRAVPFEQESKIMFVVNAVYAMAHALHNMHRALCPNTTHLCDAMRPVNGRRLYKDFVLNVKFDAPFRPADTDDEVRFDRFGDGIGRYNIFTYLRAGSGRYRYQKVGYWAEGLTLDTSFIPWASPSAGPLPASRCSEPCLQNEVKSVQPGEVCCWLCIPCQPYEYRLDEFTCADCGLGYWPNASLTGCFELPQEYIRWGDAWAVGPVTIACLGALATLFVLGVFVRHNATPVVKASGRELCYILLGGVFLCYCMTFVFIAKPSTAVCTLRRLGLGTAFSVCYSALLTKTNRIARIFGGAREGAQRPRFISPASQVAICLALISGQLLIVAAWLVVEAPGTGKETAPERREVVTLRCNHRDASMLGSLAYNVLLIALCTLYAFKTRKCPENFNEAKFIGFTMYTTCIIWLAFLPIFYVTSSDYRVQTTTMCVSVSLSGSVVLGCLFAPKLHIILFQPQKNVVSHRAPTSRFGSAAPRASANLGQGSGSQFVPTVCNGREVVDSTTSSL

On to `COc1ccc(-c2cc(C(N)=O)nc3cc(CN4C(=O)CCC4=O)ccc23)c(F)c1` [compound 7], for which the SUVmax in data set [1] is 0.3.

Usually IC50 stands for the concentration that gives 50% inhibition. For `Cn1ccc(COc2cnc(C(N)=O)cc2-c2ccc(F)cc2)n1` [compound 9], at mGluR2 [2] (setting [7]), the “decrease of [11C]13 radioactivity accumulation, average across ROIs” value turned out to be 22.4 ± 7.3%; the “decrease of [11C]13 radioactivity accumulation, cortex (highest)” value was 38.5%; the “decrease of [11C]13 radioactivity accumulation, thalamus (least)” value was determined as 17.1%. The “decrease of [11C]13 radioactivity accumulation, total average” value at mGluR2 [2] (0.5 mg/kg iv., 20 min before tracer) amounted to 14.5 ± 1.5%. For the same molecule, at mGluR2 [3], the IC50 is 78 nM. In data set [4], the “half-life (t1/2)” value is 20 min and the “plasma clearance (CLp)” value is on record as 118 mL/min/kg.

In turn, `CC1(C)CCc2c(-c3ccc(F)cc3F)cc(C(N)=O)nc2O1` [compound 12, 5-(2,4-Difluorophenyl)-2,2-dimethyl-3,4-dihydro-2H-pyrano[2,3-b]pyridine-7-carboxamide] showed a plasma stability in “Rat plasma stability” of more than 92%. Also, the microsome stability in data set [5] is more than 92%. In addition, the “luminescence change (p/s)” value at recombinant human Pgp is on record as 3.07 × 10^7 p/s. Moreover, on mGluR2 [6] (cells induced with 1 μg/mL tetracycline, no glutamate), the “agonist activity at mGluR2” value is on record as “no agonist activity was observed”. Moreover, the “concentration at which potent NAM activity begins” value on mGluR2 [6] (in the presence of increasing concentrations of L-glutamate) is approximately 30 nM.

On to `COc1ccc(-c2cc(C(N)=O)nc3c2CCC(C)(C)O3)c(F)c1` [compound 13, 5-(2-Fluoro-4-methoxyphenyl)-2,2-dimethyl-3,4-dihydro-2H-pyrano[2,3-b]pyridine-7-carboxamide], for which the plasma stability in the data set “Rat plasma stability” came out at 94.5%. The “luminescence change (p/s)” value on recombinant human Pgp is recorded as 1.53 × 10^7 p/s.

For `N#Cc1cc(C2=Nc3ccc(Br)cc3NC(=O)C2)ccn1` [compound 26], at mGluR2 [2] (setting [8]), the “decrease of [11C]13 radioactivity accumulation, among ROIs” value came to 41.7 ± 1.1%; the “decrease of [11C]13 radioactivity accumulation, cerebellum (least)” value turned out to be 39.6%; the “decrease of [11C]13 radioactivity accumulation, hypothalamus (highest)” value was 42.6%. For the same molecule, on mGluR2 [2] (setting [9]), the “decrease of [11C]13 radioactivity accumulation, average” value turned out to be 12.7 ± 1.7%; the “decrease of [11C]13 radioactivity accumulation, cerebellum (highest)” value came out at 15.2%; the “decrease of [11C]13 radioactivity accumulation, striatum (lowest)” value came out at 11.1%.
